{"source": "paper PMC12727497", "about": "“Inhibition of IRAK4 by microbial trimethylamine blunts metabolic inflammation and ameliorates glycemic control” (Nature Metabolism, 2025)", "biological_target": "interleukin-1 receptor-associated kinase 4 (IRAK4) (Homo sapiens, UniProt Q9NWZ3)", "sequence (Q9NWZ3 whole entry)": "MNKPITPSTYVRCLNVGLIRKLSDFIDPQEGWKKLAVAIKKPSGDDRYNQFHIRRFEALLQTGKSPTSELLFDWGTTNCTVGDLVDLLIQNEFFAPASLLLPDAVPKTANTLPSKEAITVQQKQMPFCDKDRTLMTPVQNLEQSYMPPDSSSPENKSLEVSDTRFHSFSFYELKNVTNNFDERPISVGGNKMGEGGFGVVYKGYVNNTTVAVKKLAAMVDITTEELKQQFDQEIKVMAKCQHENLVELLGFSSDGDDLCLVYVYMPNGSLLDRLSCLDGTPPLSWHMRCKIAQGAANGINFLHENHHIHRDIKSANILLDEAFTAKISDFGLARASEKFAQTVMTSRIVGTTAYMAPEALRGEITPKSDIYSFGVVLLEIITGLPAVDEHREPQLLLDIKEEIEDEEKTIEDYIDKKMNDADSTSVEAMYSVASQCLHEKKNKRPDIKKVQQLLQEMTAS", "test": "biochemical"}
{"smiles": "CN(C)C", "note": "[TMA, trimethylamine]", "values": [{"measurement": "Kd", "result": 14, "unit": "nM"}]}
